Source: US20110269828A1, “COMPOSITIONS AND METHODS FOR TREATING AND PREVENTING WEIGHT-RELATED DISORDERS IN COMPANION ANIMALS” (Hill's Pet Nutrition, Inc., priority 2008, published 2011)

How the values were obtained:
dogs [1] = assay: Body composition (DEXA) of dogs over 90 days; type: in vivo, dog
Excerpt: 30 dogs were used to determine the effect of lipoic acid when compared to an AAFCO control food or a test food containing fish oil.
Table 9 illustrates Dual Energy X-Ray Absorptiometry (DEXA) measurement for dogs after being fed a control diet compared with dogs fed a pet food including lipoic acid for 90 days. The measurement of body fat using DEXA is more accurate than body weight for assessing health. A dog can have a lot of muscle, but be considered “over-weight” by many height/weight charts. The opposite can also be true—a dog can have a lot of fat and little muscle and be “over-fat” but not overweight.

dogs [2] = assay: 6 month feeding study of dl-alpha-lipoic acid in dogs: body weight, physical examination, safety; type: in vivo
Excerpt: (§1) 30 adult, random source, dogs were utilized for this study. Dogs were at least 10 months of age, not pregnant, not lactating and of reasonable body weight prior to start of test. Animals were randomized into 5 groups for dietary treatment with 3 males and 3 females per each group.
All dogs were fed a control food (0 ppm dl-alpha-lipoic acid added) that met or exceeded all recommendations for nutrients as proposed by the American Association of Feed Control Officials (AAFCO 2000) during a 2 week prefeeding period (Table 2). […]
Test foods were the sole source of nutrients except for water. […] After dogs were selected and initial body weights taken, a food dose was calculated for each dog based on the expected ME of the food. Initial food dose calculations were based on the maintenance energy requirement (MER) for the dog modified by a factor to account for normal activity as calculated by the following formula: […]
Dogs were weighed weekly and had food doses adjusted as needed in order to feed enough food to maintain their optimal body weight. Optimal body weight was determined to be 3 on a 5 point scale. […] All measures of body weight and food intake were recorded. […]
Comparison of values for clinical chemistry, hematology and body weights vs baseline were analyzed by way of paired t-test on SAS for windows with significance set at P<0.05. […]

plasma metabolites = assay: Metabolomics: fold change in metabolites measured in the blood at day 30; type: in vivo, dog
Procedure: Metabolomics: Plasma metabolites were analyzed and were compared as fold change relative to the control fed dogs.

[3] = tested on: type II collagen C-propeptide and carboxy-terminal crosslinked telopeptide fragment of type II collagen; assay: Serum cartilage markers by ELISA; type: in vivo, dog; conditions: vs a similar food without lipoic acid, day 0 as covariate
Procedure: Biomarker measurements: Serum cartilage markers were measured using ELISA based kits to determine concentrations of cartilage markers. Day 0 was used as a covariate in the analysis to adjust for baseline values.

[4] = tested on: genes related to cartilage and energy metabolism; assay: Differential gene expression profile in whole blood (canine 2 Affymetrix genechips); type: in vivo, dog
Excerpt: A differential gene expression profile was studied between an AAFCO control food, a food containing fish oil, and a food containing lipoic acid. At a minimum of 1.3 fold change, a list of 1212 genes was generated compared to the AAFCO control and 1896 genes compared to the food containing fish oil at d 30.
RNA extraction: Total RNAs were isolated from whole blood samples using the PAXgene RNA isolation kit. All measurements were done with the canine 2 Affymetrix genechips. For statistical analysis, all measurements were normalized with RMA. All analysis was preformed using Partek. An ANOVA t-test was performed for genes that are differentially expressed between the control and test foods were selected based on p-value cutoff 0.1, fold change >+/−1.3.

dogs [5] = assay: Percentage of animals classifying genomically fat; type: in vivo, dog
Excerpt: Table 6 illustrates the percentage of dogs classified as genomically fat after being fed a control diet compared with dogs fed a control plus fish oil and a control plus lipoic acid for 30 days.

GSH:GSSG ratio = assay: Change in GSH:GSSG ratio in blood cells of dogs consuming DL-alpha lipoic acid in an extruded food; type: in vivo, dog
Excerpt: as §1
All dogs were fed a control food (0 ppm dl-alpha-lipoic acid added) that met or exceeded all recommendations for nutrients as proposed by the American Association of Feed Control Officials (AAFCO 2000) during a 2 week prefeeding period (Table 2). Following the prefeeding period dogs were randomized into 5 treatment groups with one of the following dl-alpha lipoic acid target-inclusions (dry matter basis): 0 ppm, 150 ppm, 1500 ppm, 3000 ppm, 4500 ppm. In all diets, control and alpha lipoic acid, Vitamin E was added and was present at a level of 600-1000 International Units and Vitamin C was added at levels of 100-200 ppm.
Blood was collected aseptically for complete blood count, and blood biochemistry analysis 2 weeks prior to start and again at […], 56, 84, 112, 140 and 168 days of the study. In addition, 15 ml of whole blood was collected for isolation of lymphocytes at day 0, 28 and 84 of the dietary intervention.
Heparinized whole blood was layered onto a 50 ml Accuspin conical centrifuge tube (Sigma Chemical) and an equal volume of Phosphate buffered saline (PBS) was added. Samples were centrifuged at 700 g for 30 minutes without brake. The monocyte layer was harvested, transferred to a 15 ml conical centrifuge tube, resuspended in 1-3 ml of PB, and centrifuged as before (First wash). A second wash was performed as the first wash. Finally, cells were harvested and suspended in perchloric acid (10% w/v) and frozen at −70° C., until analysis.
Samples were transferred from −70° C. freezer into a cooler with dry ice in it. Vials were centrifuged at 12,000 rpm for 5 minutes in a refrigerated centrifuge. An aliquot of supernatant for glutathione (GSH) analysis was transferred to a conical test tube.
Derivatization of the acid soluble extracts was by the method of Reed and coworkers (Fariss et al) as modified by Jones (Jones et al)
Briefly, 150 μL extract or external standards were added into a 1.5 ml Eppendorf tube followed by addition of 20μγ-Glu-Glu internal standard and 50 μL IAA added followed by mixing. The solution was adjusted to pH about 10 (purple color) by using KOH—KHCO3 working solution. Solutions were incubated 1 hr, under room temperature in the dark. Sanger's reagent was added at the same volume as of the total volume and the solution was incubated overnight (20 hrs) in the dark at room temperature.
After incubation, the solution was centrifuged at 12000 rpm for 5 minutes with the supernatant transferred into another 1.5 ml eppendorf tube.
Solvents and separation conditions were as described (Fariss, Jones). Levels of GSH and GSSG were quantified relative to authentic standards. Gamma-glutamyl-glutamate was used as an internal standard to assess derivatization efficiency.
Comparison of values for clinical chemistry, hematology and body weights vs baseline were analyzed by way of paired t-test on SAS for windows with significance set at P<0.05. Means of values at each measured time point were separated by a one-way ANOVA with significance set at P<0.05. The difference in GSH:GSSG between day 84 and baseline were analyzed between groups by way of SAS for windows in a one-way ANOVA with significance set at P<0.05.

[6] = body composition over 90 days, dogs
[7] = dogs fed a food containing lipoic acid
[8] = day 30, day 0 values as covariate
[9] = lipoic acid vs. control, cartilage metabolism
[10] = lipoic acid vs. control, energy metabolism
[11] = lipoic acid vs. fish oil, cartilage metabolism
[12] = lipoic acid vs. fish oil, energy metabolism

How did the “Change in weight” value (dogs [1]; 90 day treatment period, vs control and control plus fish oil) turn out when `O=C(O)CCCCC1CCSS1` (racemic) [Lipoic Acid, dl-alpha-lipoic acid] was run?
Its value is “greatest change in weight”.

What about the “Total Weight” value (dogs [1]; [6]) of the same compound?
The value was 13,800 g.

What about the Total fat (dogs [1]; [6]) of the same compound?
The Total fat was 2788.3 g.

And the “Body fat” value (dogs [1]; [7])?
Its value is “lost fat”.

And the Change in fat (dogs [1]; over 90 days, dogs)?
Its Change in fat is -587.2 g.

And the Change in weight (dogs [1]; over 90 days, dogs)?
Its Change in weight is -637.5 g.

What about the Body weight (dogs [2]; 4500 ppm inclusion group, change appeared to reverse by 6 months) of the same compound?
Its Body weight is “some weight loss occurred initially”.

And the “Chronic feeding in diet: safety” value (dogs [2]; dog, in vivo)?
The value was “safe and effective”.

And the “Change in pyruvate blood levels” value (plasma metabolites; 30 day treatment period, vs control and control plus fish oil)?
Its value is “greatest change in pyruvate blood levels”.

And the “Kidney markers in blood” value (plasma metabolites; after 30 days, control plus lipoic acid)?
The value was “decreased kidney markers”.

And the “Fold change in pyruvate measured in the blood, Lipoic acid vs Control” value (plasma metabolites; [8])?
Its value is 0.5379.

What about the “Fold change in pyruvate measured in the blood, Lipoic acid vs Fish oil” value (plasma metabolites; [8]) of the same compound?
Its value is 0.6274.

What about the “Plasma hydroxyproline” value (plasma metabolites; [7]) of the same compound?
Its value is “reduced in plasma”.

What about the “Change in carboxy-terminal crosslinked telopeptide fragment of type II collagen” value [3] of the same compound?
The value was “greater decrease”.

What about the “Change in type II collagen C-propeptide” value [3] of the same compound?
The value was “greater decrease”.

What about the “Fold change 12-lipooxygenase” value [4, 9] of the same compound?
The value was −1.3.

And the “Fold change Chondroitan sulfate synthase 1” value [4, 9]?
The value was 1.4.

And the “Fold change Facilitated glucose transporter 9” value [4, 9]?
The value was 1.4.

What about the “Fold change Prolyl hydroxylase alpha 1” value [4, 9] of the same compound?
Its value is 1.4.

And the “Fold change Prolyl hydroxylase alpha 2” value [4, 9]?
Its value is 1.3.

And the “Fold change TIMP1” value [4, 9]?
Its value is 1.3.

What about the “Fold change chondroitan sulfate proteoglycan 2 (veriscan)” value [4, 9] of the same compound?
Its value is 1.5.

And the “Fold change heparan sulfate N-deacetylase/N-sulfotransferase 2” value [4, 9]?
Its value is 1.3.

What about the “Fold change 5′ AMP alpha 1” value [4, 10] of the same compound?
Its value is 1.3.

And the “Fold change 5′ AMP beta 1” value [4, 10]?
The value was 1.3.

And the “Fold change 5′ AMP gamma 2” value [4, 10]?
Its value is 1.4.

And the “Fold change Facilitated glucose transporter 1” value [4, 10]?
The value was 1.3.

And the “Fold change Facilitated glucose transporter 6” value [4, 10]?
The value was 1 .3.

What about the “Fold change Fatty acid desaturase 1” value [4, 10] of the same compound?
The value was 1.9.

And the “Fold change Hexokinase 3” value [4, 10]?
The value was 1.3.

And the “Fold change PDK4” value [4, 10]?
The value was 1.4.

And the “Fold change PPAR gamma” value [4, 10]?
Its value is 1.3.

What about the “Fold change Succinyl CoA ligase alpha” value [4, 10] of the same compound?
Its value is 1.3.

What about the “Fold change 12-lipooxygenase” value [4, 11] of the same compound?
The value was −1.3.

And the “Fold change ADAMTS-2” value [4, 11]?
The value was −1.3.

What about the “Fold change ADAMTS-10” value [4, 11] of the same compound?
The value was −1.3.

And the “Fold change ADAMTS-16” value [4, 11]?
Its value is −1.3.

What about the “Fold change Chondroitan sulfate synthase 1” value [4, 11] of the same compound?
Its value is 1.3.

And the “Fold change Facilitated glucose transporter 9” value [4, 11]?
The value was 1.4.

What about the “Fold change Fibronectin 1” value [4, 11] of the same compound?
The value was 1.4.

What about the “Fold change Lysyl hydroxylase” value [4, 11] of the same compound?
The value was 1.3.

And the “Fold change MMP2” value [4, 11]?
Its value is −1.3.

And the “Fold change MMP7” value [4, 11]?
Its value is −1.3.

And the “Fold change N-acetylgalactosaminyltransferase 1” value [4, 11]?
Its value is 1.3.

What about the “Fold change Transforming growth factor beta receptor 1” value [4, 11] of the same compound?
The value was 1.3.

And the “Fold change chondroitan sulfate proteoglycan 2 (veriscan)” value [4, 11]?
Its value is 1.5.

What about the “Fold change 5′ AMP alpha 1” value [4, 12] of the same compound?
Its value is 1.3.

And the “Fold change 5′ AMP beta 1” value [4, 12]?
The value was 1.3.

And the “Fold change 5′ AMP gamma 2” value [4, 12]?
The value was 1.5.

And the “Fold change Facilitated glucose transporter 1” value [4, 12]?
The value was 1.3.

What about the “Fold change Facilitated glucose transporter 6” value [4, 12] of the same compound?
The value was 1.4.

What about the “Fold change Hexokinase 3” value [4, 12] of the same compound?
Its value is 1.3.

And the “Fold change PDK4” value [4, 12]?
Its value is 1.6.

What about the “Fold change PPAR gamma” value [4, 12] of the same compound?
Its value is 1.3.

What about the “Fold change SREBP-1” value [4, 12] of the same compound?
Its value is −1.3.

And the “Fold change Succinyl CoA ligase alpha” value [4, 12]?
Its value is 1.3.

What about the “Fold change Succinyl CoA ligase beta” value [4, 12] of the same compound?
Its value is 1.3.

What about the “Fold change cAMP responsice element modulator” value [4, 12] of the same compound?
Its value is 1.3.

What about the “Genomic resemblance to physically fat dogs” value (dogs [5]; after a 30 day treatment period, control plus lipoic acid) of the same compound?
The value was “genomically did not resemble physically fat dogs”.

What about the “Percentage of animals at d 30 that classified fat using genomic markers” value (dogs [5]; d 30, dogs) of the same compound?
Its value is 0%.

And the “Difference in GSH:GSSG ratio- day 0 to day 84 compared to baseline food” value (GSH:GSSG ratio; 150 ppm inclusion in extruded food, mean +/- spread)?
The value was 70 +/− 20.

And the “Difference in GSH:GSSG ratio- day 0 to day 84 compared to baseline food” value (GSH:GSSG ratio; 1,500 ppm inclusion in extruded food)?
Its value is 24 +/− 7.

And the “Difference in GSH:GSSG ratio- day 0 to day 84 compared to baseline food” value (GSH:GSSG ratio; 3,000 ppm inclusion in extruded food)?
The value was 10 +/− 4.

What about the “Difference in GSH:GSSG ratio- day 0 to day 84 compared to baseline food” value (GSH:GSSG ratio; 4,500 ppm inclusion in extruded food) of the same compound?
Its value is 50 +/− 36.

What about the “Effect on GSH to GSSG ratio” value (GSH:GSSG ratio; chronic feeding in diet) of the same compound?
The value was “improves the reduced glutathione (GSH) to oxidized glutathione (GSSG) ratio”.
